In ChEMBL document CHEMBL1250502, “An alignment independent 3D QSAR study of the antiproliferative activity of 1,2,4,5-tetraoxanes” (Eur J Med Chem, 2010):

How the values were obtained:
HeLa = test: Cytotoxicity against human HeLa cells; assay type: functional, cell-based; conditions: for IC50: Homo sapiens, HeLa; for pIC50: hela
[1] = Cytotoxicity against human Fem-X cells; assay type: functional, cell-based; conditions: for IC50: Homo sapiens, Fem-X; for pIC50: fem-x

Row | SMILES | IC50 (HeLa; read-out: pIC50 (converted)) [µM] | IC50 ([1]; read-out: pIC50 (converted)) [µM] | IC50 (HeLa; read-out: IC50) [µM] | IC50 ([1]; read-out: IC50) [µM] | pIC50 (HeLa) | pIC50 [1]
1 | CCCNC(=O)CC[C@@H](C)[C@H]1CC[C@H]2[C@@H]3CC[C@@H]4C[C@]5(CC[C@]4(C)[C@H]3C[C@H](OC(C)=O)[C@]12C)OO[C@@]1(CC[C@@]2(C)[C@H](CC[C@@H]3[C@@H]2C[C@H](OC(C)=O)[C@]2(C)[C@@H]([C@H](C)CCC(=O)NCCC)CC[C@@H]32)C1)OO5 | 33.1 | 22.9 |  |  |  | 
2 | COC(=O)CC[C@@H](C)[C@H]1CC[C@H]2[C@@H]3CC[C@@H]4CC5(CC[C@]4(C)[C@H]3C[C@H](OC(C)=O)[C@]12C)OOC1(CCC2(CCCC2)CC1)OO5 | 10.7 | 42.7 |  |  |  | 
3 | COC(=O)CC[C@@H](C)[C@H]1CC[C@H]2[C@@H]3CC[C@@H]4CC5(CC[C@]4(C)[C@H]3C[C@H](OC(C)=O)[C@]12C)OOC1(CCC2(CCCCCCC2)CC1)OO5 | 10.2 | 51.3 |  |  |  | 
4 | CCCN(CCC)C(=O)CC[C@@H](C)[C@H]1CC[C@H]2[C@@H]3CC[C@@H]4C[C@]5(CC[C@]4(C)[C@H]3C[C@H](OC(C)=O)[C@]12C)OO[C@@]1(CC[C@@]2(C)[C@H](CC[C@@H]3[C@@H]2C[C@H](OC(C)=O)[C@]2(C)[C@@H]([C@H](C)CCC(=O)N(CCC)CCC)CC[C@@H]32)C1)OO5 | 105 | 47.9 |  |  |  | 
5 | CC(=O)O[C@H]1C[C@H]2[C@@H](CC[C@@H]3C[C@]4(CC[C@@]32C)OO[C@@]2(CC[C@@]3(C)[C@H](CC[C@@H]5[C@@H]3C[C@H](OC(C)=O)[C@]3(C)[C@@H]([C@H](C)CCC(=O)N6CCCCC6)CC[C@@H]53)C2)OO4)[C@@H]2CC[C@H]([C@H](C)CCC(=O)N3CCCCC3)[C@@]12C | 89.1 | 79.4 |  |  |  | 
6 | CC(=O)O[C@H]1C[C@H]2[C@@H](CC[C@@H]3C[C@]4(CC[C@@]32C)OO[C@@]2(CC[C@@]3(C)[C@H](CC[C@@H]5[C@@H]3C[C@H](OC(C)=O)[C@]3(C)[C@@H]([C@H](C)CCC=O)CC[C@@H]53)C2)OO4)[C@@H]2CC[C@H]([C@H](C)CCC=O)[C@@]12C | 3.72 | 3.09 |  |  |  | 
7 | CC(=O)O[C@H]1C[C@H]2[C@@H](CC[C@@H]3C[C@]4(CC[C@@]32C)OO[C@@]2(CC[C@@]3(C)[C@H](CC[C@@H]5[C@@H]3C[C@H](OC(C)=O)[C@]3(C)[C@@H]([C@H](C)CCC(=O)O)CC[C@@H]53)C2)OO4)[C@@H]2CC[C@H]([C@H](C)CCC(=O)O)[C@@]12C | 5.25 | 4.17 |  |  |  | 
8 | COC(=O)CNC(=O)CC[C@@H](C)[C@H]1CC[C@H]2[C@@H]3CC[C@@H]4C[C@]5(CC[C@]4(C)[C@H]3C[C@H](OC(C)=O)[C@]12C)OO[C@]1(CC[C@@]2(C)[C@H](CC[C@@H]3[C@@H]2C[C@H](OC(C)=O)[C@]2(C)[C@@H]([C@H](C)CCC(=O)NCC(=O)OC)CC[C@@H]32)C1)OO5 | 3.63 | 4.68 |  |  |  | 
9 | CC(=O)O[C@H]1C[C@H]2[C@@H](CC[C@@H]3C[C@]4(CC[C@@]32C)OO[C@]2(CC[C@@]3(C)[C@H](CC[C@@H]5[C@@H]3C[C@H](OC(C)=O)[C@]3(C)[C@@H]([C@H](C)CCC(=O)N6CCCCC6)CC[C@@H]53)C2)OO4)[C@@H]2CC[C@H]([C@H](C)CCC(=O)N3CCCCC3)[C@@]12C | 120 | 102 |  |  |  | 
10 | CC(=O)O[C@H]1C[C@H]2[C@@H](CC[C@@H]3C[C@]4(CC[C@@]32C)OO[C@]2(CC[C@@]3(C)[C@H](CC[C@@H]5[C@@H]3C[C@H](OC(C)=O)[C@]3(C)[C@@H]([C@H](C)CCC(N)=O)CC[C@@H]53)C2)OO4)[C@@H]2CC[C@H]([C@H](C)CCC(N)=O)[C@@]12C | 6.03 | 6.17 |  |  |  | 
11 | CCCNC(=O)CC[C@@H](C)[C@H]1CC[C@H]2[C@@H]3CC[C@@H]4C[C@]5(CC[C@]4(C)[C@H]3C[C@H](OC(C)=O)[C@]12C)OO[C@]1(CC[C@@]2(C)[C@H](CC[C@@H]3[C@@H]2C[C@H](OC(C)=O)[C@]2(C)[C@@H]([C@H](C)CCC(=O)NCCC)CC[C@@H]32)C1)OO5 | 8.32 | 25.7 |  |  |  | 
12 | CC(=O)O[C@H]1C[C@H]2[C@@H](CC[C@@H]3C[C@]4(CC[C@@]32C)OO[C@]2(CC[C@@]3(C)[C@H](CC[C@@H]5[C@@H]3C[C@H](OC(C)=O)[C@]3(C)[C@@H]([C@H](C)CCC(=O)O)CC[C@@H]53)C2)OO4)[C@@H]2CC[C@H]([C@H](C)CCC(=O)O)[C@@]12C | 9.12 | 7.59 |  |  |  | 
13 | COC(=O)CC[C@@H](C)[C@H]1CC[C@H]2[C@@H]3CC[C@@H]4C[C@]5(CC[C@]4(C)[C@H]3C[C@H](OC(C)=O)[C@]12C)OO[C@]1(CC[C@@]2(C)[C@H](CC[C@@H]3[C@@H]2C[C@H](OC(C)=O)[C@]2(C)[C@@H]([C@H](C)CCC(=O)OC)CC[C@@H]32)C1)OO5 | 20.4 | 19.5 |  |  |  | 
14 | COC(=O)CC[C@@H](C)[C@H]1CC[C@H]2[C@@H]3CC[C@@H]4CC5(CC[C@]4(C)[C@H]3C[C@H](OC(C)=O)[C@]12C)OOC1(CCCCC1)OO5 | 18.6 | 52.5 |  |  |  | 
15 | CCCN(CCC)C(=O)CC[C@@H](C)[C@H]1CC[C@H]2[C@@H]3CC[C@@H]4CC5(CC[C@]4(C)[C@H]3C[C@H](OC(C)=O)[C@]12C)OOC1(CCCCC1)OO5 | 28.2 | 38.9 |  |  |  | 
16 | CC(=O)O[C@H]1C[C@H]2[C@@H](CC[C@@H]3CC4(CC[C@@]32C)OOC2(CCCCC2)OO4)[C@@H]2CC[C@H]([C@H](C)CCC(N)=O)[C@@]12C | 5.25 | 6.03 |  |  |  | 

Row | SMILES | IC50 (HeLa; read-out: pIC50 (converted)) [µM] | IC50 ([1]; read-out: pIC50 (converted)) [µM] | IC50 (HeLa; read-out: IC50) [µM] | IC50 ([1]; read-out: IC50) [µM] | pIC50 (HeLa) | pIC50 [1]
17 | CCCNC(=O)CC[C@@H](C)[C@H]1CC[C@H]2[C@@H]3CC[C@@H]4CC5(CC[C@]4(C)[C@H]3C[C@H](OC(C)=O)[C@]12C)OOC1(CCCCC1)OO5 | 6.46 | 13.2 |  |  |  | 
18 | CC(=O)O[C@H]1C[C@H]2[C@@H](CC[C@@H]3CC4(CC[C@@]32C)OOC2(CCCCC2)OO4)[C@@H]2CC[C@H]([C@H](C)CCC(=O)N3CCCCC3)[C@@]12C | 7.24 | 9.12 |  |  |  | 
19 | CCCNC(=O)C1CCC2(CC1)OOC1(CCCCC1)OO2 | 117 | 102 |  |  |  | 
20 | CN(C)CCNC(=O)C1CCC2(CC1)OOC1(CCCCC1)OO2 | 135 | 120 |  |  |  | 
21 | COC(=O)C1CCC2(CC1)OOC1(CCCCC1)OO2 | 75.9 | 72.4 |  |  |  | 
22 | O=C(O)C1CCC2(CC1)OOC1(CCCCC1)OO2 | 120 | 155 |  |  |  | 
23 | CCC1CCC2(CC1)OOC1(CC[C@@]3(C)[C@H](CC[C@@H]4[C@@H]3C[C@H](OC(C)=O)[C@]3(C)[C@@H]([C@H](C)CCC(N)=O)CC[C@@H]43)C1)OO2 (stereo partly specified) | 5.25 | 5.01 | 5.3 | 4.3 |  | 
24 | CCC1CCC2(CC1)OOC1(CC[C@@]3(C)[C@H](CC[C@@H]4[C@@H]3C[C@H](OC(C)=O)[C@]3(C)[C@@H]([C@H](C)CCC(=O)NC)CC[C@@H]43)C1)OO2 (stereo partly specified) | 4.9 | 6.92 | 6.9 | 8.82 |  | 
25 | CCNC(=O)CC[C@@H](C)[C@H]1CC[C@H]2[C@@H]3CC[C@@H]4CC5(CC[C@]4(C)[C@H]3C[C@H](OC(C)=O)[C@]12C)OOC1(CCC(CC)CC1)OO5 (stereo partly specified) | 6.92 | 6.76 | 6.7 | 7 |  | 
26 | CCC1CCC2(CC1)OOC1(CC[C@@]3(C)[C@H](CC[C@@H]4[C@@H]3C[C@H](OC(C)=O)[C@]3(C)[C@@H]([C@@H](C)CCC(N)=O)CC[C@@H]43)C1)OO2 (stereo partly specified) | 4.07 | 4.27 | 4.9 | 4.5 |  | 
27 | CCC1CCC2(CC1)OOC1(CC[C@@]3(C)[C@H](CC[C@@H]4[C@@H]3C[C@H](OC(C)=O)[C@]3(C)[C@@H]([C@@H](C)CCC(=O)NC)CC[C@@H]43)C1)OO2 (stereo partly specified) | 6.76 | 4.47 | 6.1 | 5 |  | 
28 | CCNC(=O)CC[C@H](C)[C@H]1CC[C@H]2[C@@H]3CC[C@@H]4CC5(CC[C@]4(C)[C@H]3C[C@H](OC(C)=O)[C@]12C)OOC1(CCC(CC)CC1)OO5 (stereo partly specified) | 6.92 | 8.91 | 6.9 | 6.7 |  | 
29 | CC(=O)O[C@H]1C[C@H]2[C@@H](CC[C@@H]3CC4(CC[C@@]32C)OOC2(CCCCC2)OO4)[C@@H]2CC[C@H]([C@H](C)CCC(=O)O)[C@@]12C | 6.92 | 25.1 |  |  |  | 
30 | NC(=O)C1CCC2(CC1)OOC1(CCCCC1)OO2 | 115 | 120 |  |  |  | 
31 | COC(=O)CC[C@@H](C)[C@H]1CC[C@H]2[C@@H]3CC[C@@H]4CC5(CC[C@]4(C)[C@H]3C[C@H](OC(C)=O)[C@]12C)OOC1(CCC(C)CC1)OO5 (stereo in doubt; 13) |  |  |  |  | 4.96 | 4.13
32 | COC(=O)CC[C@@H](C)[C@H]1CC[C@H]2[C@@H]3CC[C@@H]4CC5(CC[C@]4(C)[C@H]3C[C@H](OC(C)=O)[C@]12C)OOC1(CCC(C)CC1)OO5 (stereo in doubt; 14) |  |  |  |  | 5.3 | 4.6
